Source: US5140018A, “1,3,2-benzodithiazole-1-oxide compounds” (Abbott Laboratories, priority 1991, dated 1992)
≈ marks a conversion by molar mass, not a printed value.

Columns and labels:
[1] = in vivo; cited from earlier work
[2] = in vivo, cited from earlier work
[3] = tested on: Candida tropicalis NRRL-Y-112; test: In vitro antifungal MIC, Candida tropicalis NRRL-Y-112; assay type: cell-based; details: Candida tropicalis, NRRLY112, 48 h
Description: (§1) The in vitro antifungal activity of the compounds of the present invention against a variety of fungiwas determined as follow: Test medium was prepared by dissolving first 5 g of dextrose and then 6.7 g of Bacto Yeast Nitrogen Base® (commercially available from Difco Laboratories) in 100 mL of distilled water. The solution was filter-sterilized and diluted 1:10 with 0.01M pH 8.0 phosphate buffer solution, and the final pH of the medium adjusted to about pH 7.0 when necessary with either 0.1N hydrochloric acid solution of 0.1N sodium hydroxide solution. […] These concentrated stock solutions were diluted to a concentration of 200 μg/mL (twice the highest concentration desired for testing) with the test medium. Amphotericin B, similarly prepared, was used as a reference antifungal agent.
(§2) The test organisms were then inoculated into test tubes containing approximately 3 to 10 mL of test medium and the test tubes incubated overnight at 37° C. A sample of each overnight culture was placed in a test tube and diluted using the test medium until a reading of 95% transmittance was obtained in a conventional UV/visible spectrophotometer set to 560 nm. The adjusted cultures were then diluted 1:50 with test medium. These diluted cultures served as the inocula for the assays which follow and were used within 15 minutes of preparation.
(§3) Next, 2-fold serial dilutions of each test compound in test medium were prepared in a 96-well microtiter plate using calibrated microdiluters attached to an automatic (hand-held) diluter (available from Dynatech Laboratories).
(§4) Using sterile calibrated droppers or a multi-point dispenser, the diluted inoculum suspension was added to each of the wells in the plate. When inoculation was complete, the microtiter tray was covered with a plastic plate sealer to minimize evaporation. After the plate had been sealed, a hole was made above each well with a sterile 26-gauge syringe needle in order to allow gas exchange. If plate sealers were not available, the microtiter trays were stacked in groups of five or less with an empty tray on top. The microtiter trays were then incubated in a humidified chamber at 35°-37° C. for 48 hours or until growth was visible in the growth control wells.
(§5) The minimum inhibitory concentration (MIC) was defined as the lowest concentration of test compound yielding no growth, a slight haze or sparsely isolated colonies on the inoculum spot as compared to the growth control containing no test compound.

Candida kefyr ATCC 28838 = test: In vitro antifungal MIC, Candida kefyr ATCC 28838; assay type: cell-based; details: Kluyveromyces marxianus, ATCC28838, 48 h
Description: as §1, §2, §3, §4, §5

Candida albicans 579A = test: In vitro antifungal MIC, Candida albicans 579A; assay type: cell-based; details: Candida albicans, 579A, 48 h
Description: as §1, §2, §3, §4, §5

[4] = tested on: Torulopsis glabrata ATCC 15545; test: In vitro antifungal MIC, Torulopsis glabrata ATCC 15545; assay type: cell-based; details: Nakaseomyces glabratus, ATCC15545, 48 h
Description: as §1, §2, §3, §4, §5

fungi = details: cited from earlier work
[5] = tested on: Candida albicans ATCC 62376; test: In vitro antifungal MIC, Candida albicans ATCC 62376; assay type: cell-based; details: Candida albicans, ATCC62376, 48 h
Description: as §1, §2, §3, §4, §5

Candida albicans CCH 442 = test: In vitro antifungal MIC, Candida albicans CCH 442; assay type: cell-based; details: Candida albicans, CCH442, 48 h
Description: as §1, §2, §3, §4, §5

[6] = tested on: Cryptococcus albidus ATCC 34140; test: In vitro antifungal MIC, Cryptococcus albidus ATCC 34140; assay type: cell-based; details: Naganishia albida, ATCC34140, 48 h
Description: as §1, §2, §3, §4, §5

[7] = tested on: Aspergillus niger ATCC 16404; test: In vitro antifungal MIC, Aspergillus niger ATCC 16404; assay type: cell-based; details: Aspergillus niger, ATCC16404, 48 h
Description: as §1, §2, §3, §4, §5

[8] = tested on: Candida albicans ATCC 10231; test: In vitro antifungal MIC, Candida albicans ATCC 10231; assay type: cell-based; details: Candida albicans, ATCC10231, 48 h
Description: as §1, §2, §3, §4, §5

kidney function = details: patients treated with amphotericin B; cited from earlier work
[9] = tested on: Candida albicans ATCC 38247; test: In vitro antifungal MIC, Candida albicans ATCC 38247; assay type: cell-based; details: Candida albicans, ATCC38247, 48 h
Description: as §1, §2, §3, §4, §5

[10] = tested on: biosynthesis of testosterone; details: cited from earlier work

C[C@@H]1[C@H](O)[C@@H](C)/C=C/C=C/C=C/C=C/C=C/C=C/C=C/[C@H](O[C@@H]2O[C@H](C)[C@@H](O)[C@H](N)[C@@H]2O)C[C@@H]2O[C@](O)(C[C@@H](O)C[C@@H](O)[C@H](O)CC[C@@H](O)C[C@@H](O)CC(=O)O[C@H]1C)C[C@H](O)[C@H]2C(=O)O [Amphotericin B, reference compound]
mammalian toxicity [1]: considerable | untoward effects [1]: anaphylaxis, thrombocytopenia, flushing, generalized pain, convulsions, chills, fever, phlebitis, headache, anemia, anorexia and decreased kidney function | oral bioavailability ([2]; po): poor | MIC [3]: 1.56 µg/mL (≈ 1.69 µM) | MIC (Candida kefyr ATCC 28838): 1.56 µg/mL (≈ 1.69 µM) | MIC (Candida albicans 579A): 1.56 µg/mL (≈ 1.69 µM) | MIC [4]: 3.12 µg/mL (≈ 3.38 µM) | fungistatic/fungicidal action (fungi): fungicidal | MIC [5]: 1.56 µg/mL (≈ 1.69 µM) | MIC (Candida albicans CCH 442): 1.56 µg/mL (≈ 1.69 µM) | MIC [6]: 3.12 µg/mL (≈ 3.38 µM) | MIC [7]: 3.12 µg/mL (≈ 3.38 µM) | MIC [8]: 1.56 µg/mL (≈ 1.69 µM) | patients experiencing impaired kidney function (kidney function): 80% | MIC [9]: 12.5 µg/mL (≈ 13.5 µM)

CC(=O)N1CCN(c2ccc(OCC3COC(Cn4ccnc4)(c4ccc(Cl)cc4Cl)O3)cc2)CC1 (centres unmarked) [Ketoconazole]
hepatotoxicity [1]: hepatotoxins | oral activity ([2]; po): orally active | absorption into the cerebrospinal fluid [2]: poorly absorbed | inhibition of testosterone biosynthesis [10]: inhibitors of the biosynthesis of testosterone | fungistatic/fungicidal action (fungi): fungistatic and not fungicidal
